# In patent US20120232251A1, “GLUCOSE SENSOR” (King's College London, priority 2009, published 2012):
# Where two headings read alike, the source gives them in different places.
# Assays:
# [1] = cited from earlier work
# [2] = cited from earlier work; for fluorescence change: autofluorescence of the protein; for Kd: monitored by the autofluorescence of GBP [32], read-out: Kd for glucose
# [3] = Steady-state fluorescence intensity response of badan-labelled GBP mutants to glucose in PBS; type: binding; details: for Δ Fluorescence (%) (maximal change in fluorescence intensity with addition of glucose) / Kd: badan-labelled GBP mutant; for Δ Fluorescence (%) (maximal change in fluorescence intensity with addition of glucose): PBS, saturating glucose; for Kd: in PBS, read-out: Kd (mM) binding constant for glucose; for change in fluorescence intensity on glucose addition (in words): increasing glucose, up to 1M
# Experimental: (§1) To label GBP mutants with badan, 50 μM protein was dissolved in 5 mM Tris(2-carboxyethyl)phosphine in phosphate-buffered saline (PBS) pH 7.4, and then a 10-fold excess of dye (500 μM) was added and the mixture incubated overnight at 4° C., after which it was purified on a Sephadex G-25 gel-filtration column.
# (§2) Steady-state fluorescence intensity was recorded on a Perkin-Elmer LS50B fluorimeter (Perkin Elmer Instruments, Beaconsfield, UK). The excitation and emission wavelengths of badan were 400 and 550 nm respectively. All data were obtained at room temperature using quartz cuvettes with sample volume of 100 μL. The labelled protein was incubated with increasing amounts of D-glucose for 15-20 min at room temperature before fluorescence was recorded.
# (§3) The binding constant, Kd, was calculated from the sigmoidal dose-response curves using Prism 5 software (GraphPad, San Diego, Calif., USA). Lifetime values were obtained from fluorescence transients using the TR12 analysis package (courtesy of Dr. Paul Barber, Gray Cancer Institute of Radiation Oncology and Biology, Oxford University, Oxford, UK). Global analysis was applied to the entire data set of twelve transients as described for the H152C mutant previously.
# [4] = Steady-state fluorescence intensity response of badan-labelled GBP mutant to glucose in serum; type: binding
# Experimental: as §1
# Venous blood samples from healthy volunteers were collected in Vacuette tubes. The specimens were incubated at room temperature for 4 days to allow blood clotting and glycolysis. The samples were then centrifuged at 3500 g for 20 min and serum removed, pooled and stored until use. The glucose concentrations of serum samples were determined using a hexokinase-based assay (Sigma).
# as §2, with “All data were obtained at room temperature using quartz cuvettes with sample volume of 100 μL.” left out
# as §3, with “Global analysis was applied to the entire data set of twelve transients as described for the H152C mutant previously.” left out
# [5] = prior-art reports, read-out: Kd / binding constant for glucose
substance,measurement,setting,value
A213R: GBP having a single mutation of A213R (Amiss et al),Kd,"[1]; Amiss et al 2007, read-out: glucose affinity",~1000 µM
"D14E/F16A: GBP two-mutant D14E/F16A, monitored by autofluorescence (Sakaguchi-Mikami et al)",fluorescence change,[2],about 10%
same,Kd,[2],3900 µM
E149C A213R L238S: GBP triple mutant coupled to the IANBD fluorophore (Amiss et al),change in fluorescence intensity upon glucose binding (in words),"[1]; coupled to the IANBD fluorophore, Amiss et al",fifty percent
E149C/A213C/L238S(GGBP): GGBP triple mutant attached to Nile red (Thomas et al 2006),change (maximal increase) in fluorescence intensity on addition of glucose,[1]; prior-art reports,50%
same,change (maximal increase) in fluorescence intensity on addition of glucose,"[1]; prior-art reports, listed as GBP attached to Nile red",about 50%
same,Kd,[1]; [5],7000 µM
E149C/A213S/L238S: GGBP triple mutant reported by Hsieh et al,Kd,[1]; [5],500 µM
"F16A: GBP mutant F16A, monitored by autofluorescence (Sakaguchi-Mikami et al)",fluorescence change,[2],about 10%
same,Kd,[2],200 µM
GBP: unmutated glucose/galactose binding protein of E. coli,Kd,[2],0.2 µM
H152C/A213R/L238S: E. coli glucose/galactose binding protein triple mutant labelled at cysteine 152 with badan,Δ Fluorescence (%) (maximal change in fluorescence intensity with addition of glucose),[3],200%
same,Kd,[3],11 mM
same,Δ Fluorescence (%) (maximal change in fluorescence intensity with addition of glucose),[4],180%
same,Kd,[4]; read-out: Kd (mM) binding constant for glucose,14 mM
H152C/A213R: GBP double mutant labelled at 152C with badan,Δ Fluorescence (%) (maximal change in fluorescence intensity with addition of glucose),[3],~500%
same,Kd,[3],0.6 mM
H152C/F16A: GBP double mutant labelled at 152C with badan,binding of glucose (in words),[3]; badan-labelled,abolished the binding of glucose
same,Δ Fluorescence (%) (maximal change in fluorescence intensity with addition of glucose),[3],0%
same,change in fluorescence intensity on glucose addition (in words),"[3]; badan-labelled, listed as F16A mutation with H152C",no change of fluorescence intensity
same,change in fluorescence intensity on glucose addition (in words),"[3]; badan-labelled, listed as F16A/H152C-badan",no change in fluorescence
H152C/L238S: GBP double mutant labelled at 152C with badan,Δ Fluorescence (%) (maximal change in fluorescence intensity with addition of glucose),[3],200%
same,Kd,[3],0.6 mM
L238S: GBP mutant L238S previously reported,weakening of the binding of glucose to GBP,[1]; previously reported [31],ten-fold
L255C: GGBP mutant L255C (Ge et al),Kd / binding constant for glucose (in words),[1]; prior-art reports,micromolar range
Q26C: GGBP with Gln at position 26 mutated to Cys (Tolosa et al),Kd / binding constant for glucose (in words),[1]; prior-art reports,micromolar range
